Results from US20080199441A1, “Use of ex-vivo cultured hematopoietic cells for treatment of peripheral vascular diseases” (priority 2006, published 2008).

Legend:
[1] = test system: cord-blood-derived, bone marrow-derived, and peripheral blood derived hematopoietic cells; details: grown without a feeder layer; cited from earlier work
[2] = test system: hematopoietic stem/progenitor cells (CD34+ or CD133+); assay: Ex vivo expansion of hematopoietic cells; format: cell-based, human; details: cultured with cytokines plus inhibitor, compared to cells cultured with cytokines alone
Procedure: Cell cultures of human hematopoietic cells: Human umbilical cord blood cells were obtained from umbilical cord blood after normal full-term delivery (informed consent was given). MPB, or BM were obtained from donations (informed consent was given). Samples were either used fresh or collected and frozen according to well known cord blood cryopreservation protocol (Rubinstein et al. 1995) within 24 hours postpartum for UCB or according to common practice regarding MPB and BM. Prior to cryopreservation, blood was sedimented for 30 minutes on […] Starch (hydroxyethyl starch) to remove most RBC. Prior to their use, the cells were thawed in Dextran buffer (Sigma, St. Louis, Mo., USA) containing 2.5% human serum albumin (HSA)(Bayer Corp. Elkhart, Ind., USA) and processed as described herein below. Following thawing, where indicated, the leukocyte-rich fraction was harvested and layered on Ficoll-Hypaque gradient (1.077 g/mL; Sigma Inc, St Louis Mo., USA), and centrifuged at 400×g for 30 minutes. The mononuclear cell fraction in the interface layer was then collected, washed three times, and re-suspended in phosphate-buffered saline (PBS) (Biological Industries, Bet HaEmek, Israel) containing 0.5% human serum albumin (HSA) (Bayer Corp. Elkhart, Ind., USA). […] The purity of the CD133^+ populations thus obtained was 80-95%, as evaluated by flow cytometry. […]

| SMILES | fraction of CD34+ cells and long-term clonability [1] | enrichment of stem/early progenitor cell subsets (CD34+CD38− and CD34+Lin−) in cultured population [2] |
| --- | --- | --- |
| NCCNCCNCCNCCN [TEPA, tetraethylpentamine] | greatly enhanced the fraction of CD34^+ cell and their long-term clonability | – |
| NC(=O)c1cccnc1 [nicotinamide] | – | enriched with subsets of stem/early progenitor cells |
